Measurements published in patent US5830851A (Affymax Technologies N.V., priority 1995, dated 1998).
Each block holds one compound with its values, some of them ahead of it. Residues, ends and D or L forms follow the SMILES beside them.

Tests used:
[1] = biological target: T1, murine receptor (FDC-P1/ER cells) (Mus musculus, UniProt P14753); assay: Peptide dependent growth of the EPO-responsive cell line FDC-P1/ER (thymidine incorporation); assay type: cell-based
T1 construct: expressed in transfected cells; host or cells: FDC-P1 (murine bone marrow derived cell line)
T1 sequence (P14753 25-507): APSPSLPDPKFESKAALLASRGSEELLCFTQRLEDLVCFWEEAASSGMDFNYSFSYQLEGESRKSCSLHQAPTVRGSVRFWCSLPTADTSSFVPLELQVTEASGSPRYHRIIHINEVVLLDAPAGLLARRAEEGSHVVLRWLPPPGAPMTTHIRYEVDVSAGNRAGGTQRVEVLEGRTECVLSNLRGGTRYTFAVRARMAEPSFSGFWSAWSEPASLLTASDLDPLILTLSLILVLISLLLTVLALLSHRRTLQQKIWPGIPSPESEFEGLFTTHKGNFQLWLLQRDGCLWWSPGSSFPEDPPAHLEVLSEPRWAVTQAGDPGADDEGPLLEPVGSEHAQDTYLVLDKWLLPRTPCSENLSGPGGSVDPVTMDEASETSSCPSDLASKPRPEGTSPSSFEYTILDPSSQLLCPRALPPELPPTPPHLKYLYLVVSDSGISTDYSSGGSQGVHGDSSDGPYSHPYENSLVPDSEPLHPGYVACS
Method: Sample Preparation: Peptides were resuspended in DMSO as a 1×10^-2 M stock solution and serially diluted in 10-fold increments to generate the following 100× solutions: [formula]
Two μl of each stock dilution was added to a cell well as described below in a total volume of 200 μl to generate final concentrations as follows: [formula]
Cells are counted and resuspended at a concentration of 800,000 cells/ml. Approximately forty thousand cells (50μ) are added to each well of a 96 well microtiter plate. Peptide is added to each well in triplicate. A standard dose response determination is run with each series of peptides. After a forty-two hr incubation (≈2 doubling), each well is pulsed with 1 μCi/well Thymidine. Cells are incubated an additional six hr at which time cells are harvested and counted to assess thymidine incorporation as an indicator of cell proliferation.

[2] = test system: human peripheral blood mononuclear cells; assay: Colony assay, human peripheral blood; assay type: cell-based
Method: (§1) A ten milliliter sample of peripheral blood was obtained from a healthy individual in a standard sterile heparin vacutainer tube. Murine bone marrow was obtained from the femurs of approximately 10 mice per experiment. All reagents were obtained from Stem Cell Technologies Inc. (Vancouver, Canada).
(§2) a. Experimental Protocol: Briefly, a nucleated cell count was performed to establish the number and concentration of nucleated cells in the original sample. In the case of peripheral blood, the sample is subjected to centrifugation through a Ficoll-Hypaque (1.077 g per ml) gradient at 400 g for 30 minutes at room temperature. Mononuclear cells at the interface of the Ficoll-Hypaque solution are carefully removed and diluted to a total volume of about 10 ml. The cells obtained from murine bone marrow or human peripheral blood were collected by centrifugation and the supernatant was decanted. The pelleted cells were resuspended in fresh medium and subjected to collection as described above. The washed cells were diluted in Iscove's medium/2% fetal bovine serum to the following concentration for plating:
Cells were added to methyl cellulose per directions of the manufacturer. […] Equivalent cell numbers were plated in "Complete" methylcellulose medium to assess maximal colony formation. A control plate was run with each assay minus EPO and peptide to determine background colony formation. […]

[3] = test system: FDCP-1/muER cells; assay: Peptide-induced initiation of cell cycle measured by DNA content; assay type: cell-based, murine; conditions: 10 U/ml EPO, ten hours postinduction
Method: 1. Experimental Protocol: FDCP-1/muER cells were grown to stationery phase≈3.0×10^6 cells/ml. […] Three million cells were collected at the following time points: 0, 6, 8, 10, and 12 hr. (see, FIG. 15). Cells were washed twice in cold PBS and fixed by resuspending the cell pellet in 100 μl of cold PBS followed by 900 μl of cold 70% ethanol. Cells were stained with 50 μg/ml of propidium iodine and fluorescence was measured on FACS Scan Flow cytometer. The percentage of cells in each phase was measured using the SOBR model of CellFIT software, by Becton Dickinson.

[4] = test system: murine bone marrow cells; assay: Colony assay, murine bone marrow; assay type: cell-based; conditions: EPO
Method: as §1, §2
Cells were added to methyl cellulose per directions of the manufacturer. […] Equivalent cell numbers were plated in "Complete" methylcellulose medium to assess maximal colony formation. A control plate was run with each assay minus EPO and peptide to determine background colony formation. Colonies were scored after both 10 days and 18 days of incubation.

[5] = set up 2/10/94, scored 2/23/94, EPO 3U/ml
[6] = set up 2/10/94, scored 2/23/94, EPO (METHOCULT)
[7] = set up 2/10/94, scored 3/4/94, EPO 3U/ml
[8] = set up 2/10/94, scored 3/4/94, EPO (METHOCULT)
[9] = Table 14, 1/28/94 experiment, scored 2/10/94
[10] = Table 14, 1/28/94 experiment, scored 2/21/94
[11] = Table 15, 2/21/94 experiment, scored 3/1/94
[12] = Table 15, 2/21/94 experiment, scored 3/14/94

EC50 [1]: 1000 nM
Compound: CC(C)C[C@@H]1NC(=O)[C@@H]2CCCN2C(=O)CNC(=O)[C@H](Cc2ccccc2)NC(=O)[C@H](Cc2c[nH]cn2)NC(=O)[C@@H](NC(=O)[C@H](CO)NC(=O)[C@@H](N)Cc2ccc(O)cc2)CSSC[C@@H](C(N)=O)NC(=O)[C@H](C(C)C)NC(=O)[C@H](Cc2c[nH]c3ccccc23)NC(=O)[C@H]([C@@H](C)O)NC1=O [RWJ 61477] (HELM PEPTIDE1{Y.S.C.H.F.G.P.L.T.W.V.C.[am]}$PEPTIDE1,PEPTIDE1,3:R3-12:R3$$$V2.0)

Compound: EPO: Erythropoietin, a glycoprotein hormone with 165 amino acids; recombinant standard
CFU-E [2, 5]: 7
MBFU-E [2, 5]: 7
CFU-E [2, 6]: 11
MBFU-E [2, 6]: 25
CFU-E [2, 7]: 4
CFU-GM [2, 7]: 3
MBFU-E [2, 7]: 7
PBFU-E [2, 7]: 7
CFU-E [2, 8]: 1
CFU-GM [2, 8]: 9
MBFU-E [2, 8]: 11
PBFU-E [2, 8]: 13
cells in S phase [3]: approximately 45%
BFU-E colony-forming cell numbers [4, 9]: 5
CFU-E colony-forming cell numbers [4, 9]: 23
CFU-GM colony-forming cell numbers [4, 9]: 3
BFU-E colony-forming cell numbers [4, 10]: 30
CFU-E colony-forming cell numbers [4, 10]: 0
CFU-GM colony-forming cell numbers [4, 10]: 3
BFU-E colony-forming cell numbers [4, 11]: 3
CFU-E colony-forming cell numbers [4, 11]: 3
CFU-GM colony-forming cell numbers [4, 11]: > 10
CFU-E colony-forming cell numbers [4, 12]: 0
CFU-GM colony-forming cell numbers [4, 12]: 26
MBFU-E colony-forming cell numbers [4, 12]: 0
PBFU-E colony-forming cell numbers [4, 12]: 10
